Measured values taken from US20220370453A1 (Storm Therapeutics Ltd, priority 2019, published 2022).

Key:
BCDIN3D [1] = biological target: T1, BCDIN3D (Homo sapiens, UniProt Q7Z5W3); assay: BCDIN3D InCellPulse thermal stability assay in transfected A549 cells; assay type: cell-based; details: heat shock 58° C. 15 min
T1 sequence (Q7Z5W3 1-292): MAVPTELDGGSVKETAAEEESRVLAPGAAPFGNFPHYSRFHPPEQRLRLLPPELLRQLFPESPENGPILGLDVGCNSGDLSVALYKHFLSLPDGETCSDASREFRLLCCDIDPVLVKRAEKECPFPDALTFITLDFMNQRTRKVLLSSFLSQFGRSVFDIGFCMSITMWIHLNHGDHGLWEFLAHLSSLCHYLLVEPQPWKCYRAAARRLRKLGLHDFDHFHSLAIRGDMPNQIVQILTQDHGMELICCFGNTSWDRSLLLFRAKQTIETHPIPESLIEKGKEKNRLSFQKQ
Experimental: BCDIN3D InCellPulse™ Assay
The thermal stability assay was performed with lipofectamine 3000 transiently transfected A549 using the plasmid pICP-ePL-BCDIN3 Da. This plasmid encodes for BCDIN3D N-terminally fused to a Prolabel (ePL), complementing a split β-Galactosidase Enzyme System InCELL Pulse Technology (InCELL Hunter Detection Kit, DiscoverX/Eurofins, cat: 96-0079L). 20 μl A549 cells (1500 cell/well) were added with a multidrop device to compounds to a final DMSO concentration of 0.6% in 384-well polypropylene plate format in IMDM medium and pre-incubated with the compounds for 1 h at 37° C. and 5% CO2. Subsequently, a heat shock was applied to the entire sealed plate in a 58° C. water bath for 15 min. The plates were cooled to RT, spun down and 25 μl/well of EA Detection Solution at 3.3× (InCELL Hunter Detection Kit) was added per well. 21 μl of the mixture was added to a black 384-well measurement plate (Corning, PS, black, Flat Bottom, #3575), mix for 30 minutes on a plate shaker at RT. Finally, the luminescence was measured with a Perkin Elmer EnVision with 0.2 s measurement time in luminescence mode.

BCDIN3D [2] = biological target: T1, BCDIN3D; assay: BCDIN3D IC50 RFMS (RapidFire) assay with mini-helix; assay type: biochemical; details: 25 nM enzyme
Experimental: The following General Methods details the assay conditions for the Biological assays.
BCDIN3D IC50 RFMS Assay with Mini-Helix
The enzymatic assay was performed in a 384-well polypropylene plate in assay buffer with 25 mM Tris pH 8.0, 10 mM DTT, 1 mM EDTA, 0.03% BSA in a final assay volume of 20 μL. The enzyme with a final concentration of 25 nM was pre-incubated with the respective compound at 1% DMSO final assay concentration over 10 min at room temperature. The reaction was initiated by addition of 0.2 μM final assay concentration of mini-helix and 6 μM final concentration of SAM as substrates. After a 1 hr incubation at 37° C., the reaction was terminated with 40 μL of stop solution of 7.5% trichloroactetic acid in water containing 112.5 nM D4-SAH and 30 nM ^13C10-SAH used as internal standards. The SAH product concentrations as well as both internal standards were analyzed by a RapidFire High Throughput Mass Spectrometry System (Agilent Technologies, Santa Clara, Calif.) using an AP14000 triple quadrupole mass spectrometer (AB Sciex Framingham, Mass.).

[3] = transiently transfected A549 cells
[4] = mini-helix substrate 0.2 μM, SAM 6 μM
[5] = A549 cells transiently transfected with ePL-BCDIN3D, 1 h pre-incubation
[6] = mini-helix 0.2 μM and SAM 6 μM as substrates, 1 hr at 37° C.

Compound	IC50 (BCDIN3D [1]; [3])	IC50 (BCDIN3D [2]; [4])	IC50 (BCDIN3D [1]; [5])	IC50 (BCDIN3D [2]; [6])
Cn1ncc2c(NCC3CC34CCC4)nc(NC[C@H](N)c3ccccc3)nc21 (stereo partly drawn) [Compound 4.104, N6-[(2R)-2-amino-2-phenyl-ethyl]-1-methyl-N4-(spiro[2.3]hexan-2-ylmethyl)pyrazolo[3,4-d]pyrimidine-4,6-diamine]	0.056 µM	0.028 µM		
CNc1nc(NCC(C)(N)c2ccccc2)nc2c1cnn2C (stereo not shown) [Compound 4.39, 6-N-(2-amino-2-phenylpropyl)-4-N,1-dimethylpyrazolo[3,4-d]pyrimidine-4,6-diamine]	17.1 µM	9.17 µM		
Cn1ncc2c(Nc3ccc(Cl)cc3)nc(NC[C@@H](N)c3ccccc3)nc21 [Compound 4.31, N6-[(2S)-2-amino-2-phenyl-ethyl]-N4-(4-chlorophenyl)-1-methyl-pyrazolo[3,4-d]pyrimidine-4,6-diamine]	60 µM	7.39 µM		
Cn1ncc2c(NC3(C)CC3)nc(NC[C@H](N)c3ccccc3)nc21 [Compound 4.77, N6-[(2R)-2-amino-2-phenyl-ethyl]-1-methyl-N4-(1-methylcyclopropyl)pyrazolo[3,4-d]pyrimidine-4,6-diamine]	1.97 µM	2.77 µM		
Cn1ncc2c(OC(C)(C)C)nc(NCC(N)c3ccccc3)nc21 (stereo not shown) [Compound 6.05, N′-(4-tert-butoxy-1-methyl-pyrazolo[3,4-d]pyrimidin-6-yl)-1-phenyl-ethane-1,2-diamine]			5.14 µM	4.16 µM
Cn1ncc2c(NC3CC(C)(C)C3)nc(NC[C@H](N)c3ccccc3)nc21 [Compound 4.96, N6-[(2R)-2-amino-2-phenyl-ethyl]-N4-(3,3-dimethylcyclobutyl)-1-methyl-pyrazolo[3,4-d]pyrimidine-4,6-diamine]	0.0218 µM	0.014 µM		
Cn1ncc2c(NCC3CC3)nc(NCC(N)c3ccccc3)nc21 (stereo not shown) [Compound 4.56, 6-N-(2-amino-2-phenylethyl)-4-N-(cyclopropylmethyl)-1-methylpyrazolo[3,4-d]pyrimidine-4,6-diamine]	7.27 µM	3.47 µM		
Cn1ncc2c(NCC(F)F)nc(NC[C@H](N)c3ccccc3)nc21 [Compound 4.73, N6-[(2R)-2-amino-2-phenyl-ethyl]-N4-(2,2-difluoroethyl)-1-methyl-pyrazolo[3,4-d]pyrimidine-4,6-diamine]	0.412 µM	0.528 µM		
Cn1ncc2c(Nc3cccc(F)c3)nc(NCC3(N)CC3)nc21 [Compound 2.29, 6-N-[(1-aminocyclopropyl)methyl]-4-N-(3-fluorophenyl)-1-methylpyrazolo[3,4-d]pyrimidine-4,6-diamine]	3 µM	0.444 µM		
Cn1ncc2c(NCC3(F)CCC3)nc(NC[C@H](N)c3ccccc3)nc21 [Compound 4.107, N6-[(2R)-2-amino-2-phenyl-ethyl]-N4-[(1-fluorocyclobutyl)methyl]-1-methyl-pyrazolo[3,4-d]pyrimidine-4,6-diamine]	0.618 µM	0.28 µM		
Cn1ncc2c(Nc3cccnc3)nc(NCC3(N)CC3)nc21 [Compound 2.10, 6-N-[(1-aminocyclopropyl)methyl]-1-methyl-4-N-pyridin-3-ylpyrazolo[3,4-d]pyrimidine-4,6-diamine]	15.7 µM	8.68 µM		
Cn1ncc2c(NC(C)(C)C3CC3)nc(NC[C@H](N)c3ccccc3)nc21 [Compound 4.59, N6-[(2R)-2-amino-2-phenyl-ethyl]-N4-(1-cyclopropyl-1-methyl-ethyl)-1-methyl-pyrazolo[3,4-d]pyrimidine-4,6-diamine]	0.0775 µM	0.109 µM		
CC1CC(Nc2nc(NC[C@H](N)c3ccccc3)nc3c2cnn3C)C1 (stereo partly drawn) [Compound 4.87, N6-[(2R)-2-amino-2-phenyl-ethyl]-1-methyl-N4-(3-methylcyclobutyl)pyrazolo[3,4-d]pyrimidine-4,6-diamine]	0.0709 µM	0.0507 µM		
Cn1ncc2c(NC(C)(C)C(F)(F)F)nc(NC[C@H](N)c3ccccc3)nc21 [Compound 4.75, N6-[(2R)-2-amino-2-phenyl-ethyl]-1-methyl-N4-(2,2,2-trifluoro-1,1-dimethyl-ethyl)pyrazolo[3,4-d]pyrimidine-4,6-diamine]	0.711 µM	0.24 µM		
Cn1ncc2c(Nc3ccc(F)cc3)nc(NC[C@@H](N)c3ccccc3)nc21 [Compound 7.06, N6-[(2S)-2-amino-2-phenyl-ethyl]-N4-(4-fluorophenyl)-1-methyl-pyrazolo[3,4-d]pyrimidine-4,6-diamine]			2.93 µM	2.19 µM
Cn1ncc2c(NCc3ccc(-c4ccccc4)cc3)nc(NCC(C)(C)N)nc21 [Compound 1.28, N6-(2-amino-2-methylpropyl)-N4-({[1,1′-biphenyl]-4-yl}methyl)-1-methyl-1H-pyrazolo[3,4-d]pyrimidine-4,6-diamine]			0.765 µM	1.11 µM
Cn1ncc2c(NC(C)(C)C)nc(NC[C@H](N)c3ccccc3Cl)nc21 [Compound 5.11, N6-[(2R)-2-amino-2-(2-chlorophenyl)ethyl]-N4-tert-butyl-1-methyl-pyrazolo[3,4-d]pyrimidine-4,6-diamine]	0.457 µM	0.321 µM		
Cn1ncc2c(Nc3ccc(C(F)(F)F)cc3)nc(NCC3(N)CC(F)(F)C3)nc21 [Compound 3.12, 6-N-[(1-amino-3,3-difluorocyclobutyl)methyl]-1-methyl-4-N-[4-(trifluoromethyl)phenyl]pyrazolo[3,4-d]pyrimidine-4,6-diamine]	1.57 µM	0.479 µM		
Cn1ncc2c(Nc3cccc(Oc4ccccc4)c3)nc(NCCN)nc21 [Compound 1.04, N6-(2-aminoethyl)-1-methyl-N4-(3-phenoxyphenyl)-1H-pyrazolo[3,4-d]pyrimidine-4,6-diamine]			1.53 µM	1.26 µM
Cn1ncc2c(Nc3ccc(F)c(F)c3)nc(NCC3(N)CC3)nc21 [Compound 2.39, 6-N-[(1-aminocyclopropyl)methyl]-4-N-(3,4-difluorophenyl)-1-methylpyrazolo[3,4-d]pyrimidine-4,6-diamine]	2.13 µM	0.35 µM		
Cn1ncc2c(Nc3ccc(C(F)(F)F)nc3)nc(NCC(N)c3ccccc3)nc21 (stereo not shown) [Compound 4.25, 6-N-(2-amino-2-phenylethyl)-1-methyl-4-N-[6-(trifluoromethyl)pyridin-3-yl]pyrazolo[3,4-d]pyrimidine-4,6-diamine]	0.319 µM	0.0507 µM		
Cn1ncc2c(NC3CCCC3)nc(NC[C@H](N)c3ccccc3)nc21 [Compound 4.113, N6-[(2R)-2-amino-2-phenyl-ethyl]-N4-cyclopentyl-1-methyl-pyrazolo[3,4-d]pyrimidine-4,6-diamine]	0.148 µM	0.062 µM		
Cn1ncc2c(Nc3ccc(C(F)(F)F)cc3)nc(NCCN)nc21 [Compound 1.01, N6-(2-Aminoethyl)-1-methyl-N4-[4-(trifluoromethyl)phenyl]pyrazolo[3,4-d]pyrimidine-4,6-diamine]			3.33 µM	1.98 µM
Cn1ncc2c(NC3CC3)nc(NC[C@H](N)c3ccccc3)nc21 [Compound 7.04, N6-[(2R)-2-amino-2-phenyl-ethyl]-N4-cyclopropyl-1-methyl-pyrazolo[3,4-d]pyrimidine-4,6-diamine]			2.97 µM	3.91 µM
[2H]C([2H])([2H])n1ncc2c(Nc3ccc(C(F)(F)F)nc3)nc(NCC3(N)CC3)nc21 [Compound 2.50, N6-[(1-aminocyclopropyl)methyl]-1-(trideuteriomethyl)-N4-[6-(trifluoromethyl)-3-pyridyl]pyrazolo[3,4-d]pyrimidine-4,6-diamine]	2.98 µM	0.344 µM		
[2H]C([2H])([2H])n1ncc2c(NC(C)(C)C)nc(NCC(N)c3ccccc3F)nc21 (stereo in doubt) [Compound 7.17, N6-[(2S)-2-amino-2-(2-fluorophenyl)ethyl]-N4-tert-butyl-1-(trideuteriomethyl)pyrazolo[3,4-d]pyrimidine-4,6-diamine]			2.14 µM	0.981 µM
